Here are results for six compounds from US10420745B2 (priority 2015, dated 2019).

One assay concerns Clostridia perfringens. The format is cell-based. Particulars: minimum inhibitory concentration towards Clostridia perfringens, in vitro.
Assay [1] relates to Clostridium perfringens-induced necrotic enteritis. The format is in vivo, broiler chicken. Particulars: Ross 308 broilers, lower concentration in feed (2.5/2/1.5 kg/ton weeks 1/2/3), adsorbed on silica carrier, C. perfringens challenge days 17-20, scoring day 21; positive control 71%.

As for `CCCC(=O)O` [Butyric acid], in the assay on Clostridia perfringens, the MIC is 62 mmol.

In the assay on Clostridia perfringens, `CCCC(=O)OCC(O)CO` (stereo not shown) [Glyceryl monobutyrate] registered an MIC of 125 mmol.

The compound `CCC(=O)OCC(O)CO` (stereo not shown) [Glyceryl monopropionate] yielded an MIC in the assay with Clostridia perfringens of 250 mmol.

As to `CCCCC(=O)OCC(O)CO` (stereo not shown) [Glyceryl monovalerate], in assay [1], the “animals within the group diagnosed as necrotic enteritis positive (macroscopic lesion score ≥2)” value was 27%. The compound further returned an MIC in the assay on Clostridia perfringens of 15 mmol.

In the assay on Clostridia perfringens, `CCC(=O)O` [Propionic acid] yielded an MIC of 62 mmol.

`CCCCC(=O)O` [Valeric acid] yielded an MIC in the assay on Clostridia perfringens of 15 mmol.
